Experimental data from patent publication US10905774B2, “Nanocage and use thereof” (KOREA INSTITUTE OF SCIENCE AND TECHNOLOGY, priority 2016, dated 2021).
Entries after “also recorded” stand apart in the source; their conditions may differ.

How the values were obtained:
[1] = tested on: CT26.CL25 cancer cells; test: In vivo cancer growth inhibition, tail vein injection of doxorubicin nanocage complex and comparators; parameters: species or system Balb/c wild-type mice; settings: tail vein 1 mg/kg; for tumor tissues excised after 25 days of cancer cell injection: day 25
Method: (§1) The antitumor activities of the ferritin heavy chain nanocage prepared in Examples 1-1 to 1-5 and the doxorubicin nanocage complex prepared in Example 3 were examined. Particularly, Balb/c wild type mice were used as the experimental animals, and experiments on the above experimental animals were carried out according to the regulations of the KIST animal ethics committee.
In addition, the present inventors investigated the in vivo anticancer activity of the doxorubicin-encapsulated nanocage complex prepared in Example 3 above. Particularly, 1×10^6 cells of CT26.CL25 cancer cells were subcutaneously injected into the above Balb/c wild-type mice to induce cancer. On the 7th day after the injection of cancer cells, 1 mg/kg of each test substance (buffer only, doxorubicin-loaded FH-SIRPα HV nanocage, doxorubicin-loaded ferritin heavy chain nanocage, doxorubicin+recombinant SIRPα, doxorubicin only, FH-SIRPα HV nanocage, ferritin heavy chain nanocage or recombinant SIRPα) was injected first by the tail vein and further injected four times at interval of 3 days at the same dose. The animals were sacrificed for 25 days after the injection of cancer cells, and the tumor tissues were excised and an ex vivo image was taken (FIG. 7D). Further, the volume of the tumor tissue over time before the sacrifice of the experimental animals was recorded from 7 days after the injection of cancer cells at the interval of 3 days by calculating using the following formula after measuring length (L) and width (W) of tumor tissues using a caliper: Tumor tissue volume (V [mm^3])=(L [mm])×(W [mm])^2×0.5

[2] = tested on: secondary cancer transplanted to other site; test: Anticancer memory effect: secondary tumor rechallenge and survival; assay type: in vivo, mice; settings: after 80 days of tumor rechallenge
Excerpt: The present inventors have hypothesized that the effect of FH-SIRPα nanocage according to an embodiment of the present invention is due to the recruiting of immune cells from the results of Experimental Example 3. Thus, the present inventors analyze growth of secondary cancer transplanted to other site and counted survival rate of the experimental animals after excising primary tumor tissues from the experimental animals.

[3] = tested on: CT26.CL25 cancer cells; test: In vivo cancer growth inhibition, intratumoral nanocages; parameters: species or system Balb/c wild-type mice; settings: CT26.CL25 subcutaneous; intratumoral 28 mg/kg
Method: as §1
First, in order to measure the in vivo anticancer activity of the various ferritin heavy chain nanocages prepared in Examples 1-1 to 1-5, 1×10^6 cells of CT26.CL25 cancer cells expressing β-galactosidase were subcutaneously injected on the left side of Balb/c wild-type mice in order to induce cancer and then each experimental substance (buffer only, FH-mSIRPα WT, FH-SIRPα HV, FH-SIRPγ WT and FH-SIRPγ V2) was injected intratumorally at dose of 28 mg/kg) after 5 day of tumor inoculation, and the length (L) and the width (W) of the tumor tissues were measured using a caliper at intervals of 3 days (FIG. 7A), and then the volume of tumor tissue was calculated using the following formula: Tumor tissue volume (V [mm^3])=(L [mm])×(W [mm])^2×0.5

[4] = tested on: HT29 human colon cancer cells; test: Flow cytometry of nanocage binding to HT29 cancer cells; assay type: cell-based; settings: 20, 200, 400 or 600 nM
Method: In order to confirm the affinity of cancer cells for nanocages produced using various SIRP proteins prepared in Examples 1-2 to 1-5, respectively in addition to the nanocage prepared in Example 1-1, flow cytometry was performed. Particularly, HT29 human colon cancer cells were seeded into 2×10^5 cells/ml and the wild-type ferritin heavy chain nanocage as a control group, the FH-SIRPα HV nanocage prepared in Example 1-1, the FH-hSIRPα WT nanocage prepared in Example 1, the FH-SIRPγ WT nanocage prepared in Example 1-3 and the FH-SIRPγ V2 nanocage prepared in Example 1-5 were treated at the concentration of 20, 200, 400 or 600 nM, respectively, and the degree of cell binding was measured. Particularly, after treating anti-ferritin heavy chain primary antibody (Abcam, Cambridge, UK, 1:200) and an Alexafluor 488-conjugated donkey anti-rabbit secondary antibody (Jackson ImmunoResearch, Suffolk, UK, 1:400), the cells were sorted according to fluorescence intensity through flow cytometry analysis.

[5] = tested on: CT26.CL25 mouse colon cancer cells; test: Phagocytosis rate of CT26.CL25 cells by bone marrow-derived macrophages (counting phagocytized cells); assay type: cell-based; settings: BMDMs cocultured with CT26.CL25 at 37° C. for 4 hours
Method: After the staining, phagocytosis rate of macrophages against cancer cells were determined by counting phagocytized cancer cells by the macrophages.

[6] = target: T1, Mouse CD47 (Mus musculus, UniProt Q61735); test: Surface plasmon resonance (SPR) analysis of affinities and kinetics of binding to mouse CD47
T1 sequence (Q61735 19-303): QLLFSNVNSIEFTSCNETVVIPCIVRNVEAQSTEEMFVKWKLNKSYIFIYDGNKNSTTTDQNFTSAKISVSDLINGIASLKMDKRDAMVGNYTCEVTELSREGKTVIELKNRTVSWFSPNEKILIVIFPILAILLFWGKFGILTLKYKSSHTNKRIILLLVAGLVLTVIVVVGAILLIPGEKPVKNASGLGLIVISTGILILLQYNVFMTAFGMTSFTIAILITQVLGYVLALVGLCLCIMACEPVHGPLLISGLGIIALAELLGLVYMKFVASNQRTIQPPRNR
Method: (§2) The present inventors performed fluorescence microscopy to confirm whether the FH-SIRPα HV nanocage prepared in Example 1 specifically binds to CD47 on the surface of cancer cells. Specifically, CT26 mouse colorectal cancer cell line and HT29 human colorectal cancer cell line were inoculated at a concentration of 3×10^4 cells/ml. Then, after treating 400 nM of FH-SIRPα HV nanocage prepared in Example 1-1 or same amount of wild-type ferritin heavy chain nanocage as control group, anti-ferritin primary antibody (Abcam, Cambridge, UK) and FITC-conjugated anti-mouse rabbit secondary antibody (Jackson ImmunoResearch, Suffolk, UK) were treated and then fluorescence microscopic images were obtained. […] The affinities and kinetics of FH-SIRP α HV nanocage binding human or mouse CD47 were analyzed by surface plasmon resonance (SPR) analysis and the results are shown in Table 1 below.

[7] = tested on: Raji, HT-29, 4T1, CT26 and CT26.CL25 cancer cells co-cultured with BMDCs; test: Phagocytosis of cancer cells by bone marrow-derived dendritic cells (FACS); assay type: cell-based, human, mouse; settings: 400 nM; compared with control group
Excerpt: (§3) Particularly, the present inventors observed the phagocytic action of macrophages and dendritic cells against tumor cells through FACS analysis. First, 3×10^5 cells/ml of bone marrow-derived macrophages (BMDMs) pre-stained with CellTracker Green (Thermo Fisher Scientific, USA) and (a) 1.25×10^6 cells/ml of human Raji Burkitt lymphoma cells, (b) human HT-29 colorectal cancer cells, (c) mouse 4T1 breast cancer cells, (d) mouse CT26 colorectal cancer cells and (e) mouse CT26.CL25 colorectal cancer cells overexpressing β-galactosidase pre-stained with pHrodo Red SE, respectively were seeded in RPMI medium and buffer only (control), the ferritin-SIRPα fusion nanocage (FH-SIRPα HV) of the present invention, the wild-type ferritin heavy chain nanocage (wtFH) and the monomeric SIRPα (mSIRPα) were treated at the concentration of 400 nM, respectively. […] The phagocytosis rate was determined by the following formula. […]

[8] = tested on: Raji, HT-29, 4T1, CT26 and CT26.CL25 cancer cells co-cultured with BMDMs; test: Phagocytosis of cancer cells by bone marrow-derived macrophages (FACS); assay type: cell-based, human, mouse; settings: 400 nM; compared with control group
Excerpt: as §3

[9] = target: Human CD47 (Homo sapiens, UniProt Q08722); test: Surface plasmon resonance (SPR) analysis of affinities and kinetics of binding to human CD47
Sequence of Human CD47 (Q08722 19-323): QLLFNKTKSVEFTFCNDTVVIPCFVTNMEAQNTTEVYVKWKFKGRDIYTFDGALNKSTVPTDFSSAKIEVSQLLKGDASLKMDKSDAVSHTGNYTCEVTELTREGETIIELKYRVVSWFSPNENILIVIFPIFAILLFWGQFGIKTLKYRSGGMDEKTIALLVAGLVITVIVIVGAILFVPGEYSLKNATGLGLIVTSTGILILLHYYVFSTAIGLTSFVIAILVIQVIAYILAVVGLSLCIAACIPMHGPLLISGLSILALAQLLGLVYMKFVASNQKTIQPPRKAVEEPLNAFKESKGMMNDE
Method: as §2

[10] = five injections at interval of 3 days

With `COc1cccc2c1C(=O)c1c(O)c3c(c(O)c1C2=O)C[C@@](O)(C(=O)CO)C[C@@H]3O[C@H]1C[C@H](N)[C@H](O)[C@H](C)O1` [doxorubicin] the “tumor tissues excised after 25 days of cancer cell injection” value [1] was “limited”, the “anticancer effect (growth of cancer cells)” value [1, 10] was “insignificant; also recorded: not so significant” and the survival rate [2] was 50%.

For “FH-hSIRPα WT nanocage: Ferritin heavy chain nanocage of fusion protein with human SIRPα wild-type protein (SEQ ID NO: 92)”, the “antitumor activity (tumor growth)” value [3] was “somewhat lowered”, the “degree of cell binding” value [4] was “binds to cancer cells in a concentration-dependent manner” and the “phagocytic activity against cancer cells” value [5] was “exhibited phagocytic activity against cancer cells”.

With “mSIRPα: Monomeric (recombinant) SIRPα protein used as comparator” the Kd [6] was 6.2 nM, the ka [6] was 1.8e+06 M⁻¹ s⁻¹ and the kd [6] was 0.011 s⁻¹. For the same molecule, the “phagocytosis of cancer cells by dendritic cells (BMDCs)” value [7] was “significantly increased”, the “tumor tissues excised after 25 days of cancer cell injection” value [1] was “same tumor volume as the control group” and the “anticancer effect (growth of cancer cells)” value [1, 10] was “not so significant”. For the same molecule, the “volume of the tumor” value [1, 10] was “exceeded 1,000 mm^3”, the “phagocytosis of cancer cells by macrophages (BMDMs)” value [8] was “significantly increased” and the survival rate [2] was 50%. For the same molecule, the Kd [9] was 0.0054 nM, the ka [9] was 7e+06 M⁻¹ s⁻¹ and the kd [9] was 3.7e-05 s⁻¹.

“wtFH: Wild-type ferritin heavy chain nanocage used as control [reference compound]” was tested, and the “phagocytosis of cancer cells by dendritic cells (BMDCs)” value [7] was “very low”, the “phagocytosis of cancer cells by macrophages (BMDMs)” value [8] was “very low” and the “degree of cell binding” value [4] was “did not bind to cancer cells even when the concentration increased”.
